Laboratory results published in US9480668B2, “Blood flow promoting agent” (KYOWA HAKKO BIO CO., LTD., priority 2012, dated 2016).

Key:
[1] = test system: thoracic aorta isolated from a rat; experiment: Magnus method: vasodilatory potency on aortic ring, relaxation of Norepinephrine 0.3 μM-induced contraction; conditions: L-citrulline 1000 μM, single addition; vasoconstriction induced by 0.3 μM Norepinephrine
[2] = sublingual treatment, concentration-dependent; non-patent document 3; cited from earlier work

NC(=O)NCCC[C@H](N)C(=O)O [L-citrulline]
vascular relaxation rate (%) [1]: 15-20%

COc1cc(CNC(=O)CCCCC=CC(C)C)ccc1O [capsaicin, 8-methyl-N-vanillyl-6-nonenamide]
concentration of capsaicin solution producing a feeling of strong pain [2]: not less than 75 μM
